Experimental data taken from patent US20240277851A1, “siRNA DELIVERY VECTOR” (COUNCIL OF SCIENTIFIC & INDUSTRIAL RESEARCH, priority 2021, published 2024).
Values belong to the molecule of their own block, whether it stands above or below them.

Assays:
MDA-MB-231 cells = assay: Intracellular delivery of Cy-5 siRNA by confocal imaging, MDA-MB-231; format: cell-based; settings: MDA-MB-231, Cy-5 siRNA 40 nM, 24 h
Method: (§1) FIG. 5: Detection of intracellular delivery of Cy-5 siRNA by Mito-Esc using confocal imaging. MDA-MB-231 cells were transfected with Cy-5 labelled siRNA (40 nM) with indicated delivery systems for 24 h. Transfection efficacy was evaluated using Confocal Microscopy. Cy-5 fluorescence in the cytosol is shown in blue color (Scale bar 10X). Briefly, MDA-MB-231 cells were seeded on a coverslip in 12-well plates at a density of 3×10^4 cells per well in 1 mL complete DMEM and cultured for 12 h. Fluorescent (Cy-5) siRNA was complexed either with lipofectamine-2000 (positive control) or with Mito-Esc (2.5 μM) or parent esculetin (2.5 μM) or with different cationic lipids in serum free DMEM medium for 30 min before addition into the plates. These lipoplexes were added to the cells and incubated for 6 h. After that, cells were washed twice with PBS and fixed with 4% paraformaldehyde for 15 min. Finally, slides were mounted and the cells were imaged using a confocal microscope. Florescent labeled siRNA with Mito-Esc lipoplexes were prepared as described above and incubated with MDA-MB-231 cells for 24 h. The cells were stained by DAPI to stain the nucleus. The cells were mounted and observed under confocal microscope (Olympus, Tokyo, Japan).

siRNA = assay: Agarose gel electrophoresis retardation assay (siRNA binding); settings: earlier findings, FIG. 2D; ratios 1:1 to 7:1
Method: Gel electrophoresis was performed with agarose gel (1.5% w/v) in tris-acetate-EDTA buffer (40 mM) with one drop of ethidium bromide added (concentration of EtBr stock solution: 0.625 mg/ml in H2O), at 100 V for 30 min. The siRNA lipoplexes were prepared by complexing siRNA with Mito-Esc, Mito-isoscopoletin and octyl TPP cation at described P^+/P^− ratios. The samples were incubated for 30 min at room temperature prior to addition into a well. The siRNA bands were visualized under UV illumination at 365 nm.
Mito-Esc nanoparticle solutions were prepared at various concentrations according to the desired final P+:P− charge ratio. Twenty μL solution of the Mito-Esc/siRNA complex was prepared to maintain a constant amount of siRNA in each solution (1 μg in 10 μL), and varying the amount of Mito-Esc according to the P+:P− charge ratio. The prepared mixtures were gently vortexed for 5 min. and incubated for 30 min at room temperature for complex formation.
The efficiency of Mito-Esc to bind siRNA was checked by agarose gel electrophoresis. Also, in order to assess the importance of hydrogen bonding in forming the stable siRNA complexes, Mito-isoscopoletin was synthesized by protecting the dihydroxy group with methyl group. Octyl TPP cation was used as a negative control.

[1] = tested on: MDA-MB-231 breast cancer cells; assay: Trypan blue dye exclusion cell viability, MDA-MB-231; format: cell-based; settings: MDA-MB-231, 24 h and 48 h, FIG. 1A
Method: FIG. 1: Mito-Esc dose- and time-dependently induces breast cancer cell death without affecting normal cell viability. (A) MDA-MB-231 breast cancer cells were treated with various concentrations of Mito-Esc (1.25-7.5 μM). Cell viability was measured by trypan blue dye exclusion assay at 24 h and 48 h. (B) Same as A, except that cells were treated with parent Esc (5-50 μM). (C) Same as A, except that MCF10A (normal mammary epithelial) cells were treated with Mito-Esc (5-50 μM).
MDA-MB-231 (a Triple negative breast cancer cell line, ATCC) and MCF-10A cells (normal mammary epithelial cells, ATCC) were grown in Dulbecco's Modified Eagle's medium (DMEM) containing 10% FBS, 1% (v/v) Sodium Pyruvate (100 mM), Sodium bicarbonate (26 mM), L-glutamine (4 mM), penicillin (100 units/ml), and streptomycin (100 μg/ml). Cells were maintained in an incubator at 37° C. in a humidified atmosphere of 5% CO2 and 95% air.
To evaluate cytotoxicity of the Mito-Esc or Mito-Esc lipoplexes with siMnSOD, a trypan blue dye exclusion assay was used. Briefly, cells were seeded in a 12-well plate at a density of 3×10^4 cells per well and cultured overnight before transfection. […] The cell suspension (10 μl) was mixed with an equal amount of trypan blue and counted using an automated cell counter (Countess, Life Technologies). […]

[2] = tested on: HeLa (cervical) cancer cells; assay: Sulforhodamine B cytotoxicity, HeLa; format: cell-based; settings: 24 h
Method: (§2) Cytotoxicity of Mito-Esc on different cancer cell lines HeLa (cervical), HepG2 (liver), MCF-7 (ER+ve breast), A549 (lung), DU-145 (prostate) cancer cells and MCF-10A (normal mammary epithelial cells) were determined by treating with Mito-Esc (0.5-100 μM) for 24 h and cell viability was measured by Sulforhodamine B assay.

[3] = tested on: MDA-MB-231 cells in mammary fat pad; assay: In-vivo orthotopic MDA-MB-231 tumor model; settings: SCID mice, i.p. 3 and 6 mg/kg for two weeks
Method: Inoculation of MDA-MB-231 cells into mammary fat pad of SCID mice: 6-week-old female SCID mice were used for the experiment. Initially, 10 nM Qtracker labeling solution (Qtracker Cell Labeling Kit, Invitrogen Q25071MP) was prepared by pre-mixing 10 μL each of Component A and Component B in a 1.5 mL microcentrifuge tube and incubated for 5 minutes at room temperature. This mixture was added to 0.2 mL of fresh complete growth medium and vortexed for 30 seconds and added to a 75-cm2 tissue culture flask containing MDA-MB-231 cells and incubated in a 37° C., 5% CO2 incubator overnight. Sub-confluent labeled cells were harvested and counted.
Cells (1×10^6) were suspended in 0.1 ml of serum free medium. To this 0.1 ml of matrigel was added and gently mixed to get a uniform cell suspension. The SCID mice were anesthetized with ketamine/xylazine cocktail (50 μL/20 g mice) and each mouse was implanted with above mentioned 1×10^6 Q-Tracker labelled MDA-MB-231 cells into the 4th pair of mammary fat pad orthotopically and sutured the fat pad after the inoculation of cells. The incision site was dressed with povidone-iodine to prevent infection every day until the incision healed. Mice were checked to see development of tumors and treatment began once the tumors reached a volume of ≥300 mm^3. […] On the day of sacrifice, tumor volumes were measured using Vernier calipers. […]

[4] = tested on: HepG2 (liver) cancer cells; assay: Sulforhodamine B cytotoxicity, HepG2; format: cell-based; settings: HepG2, 24 h
Method: as §2

[5] = tested on: DU-145 (prostate) cancer cells; assay: Sulforhodamine B cytotoxicity, DU-145; format: cell-based; settings: DU-145, 24 h
Method: as §2

[6] = Size and surface charge of Mito-Esc nanoparticles (DLS, zeta potential); format: physicochemical; settings: aqueous solution (1% EtOH)
Method: The size (hydrodynamic diameter) and the surface charge (zeta potentials) of a Mito-Esc nanoparticle were measured by photon correlation spectroscopy and the electrophoretic mobility on a Zetasizer 3000HSA (Malvern, UK). The size was measured in deionized water with a sample refractive index of 1.33, a viscosity of 0.88 cP and a temperature of 25° C. The size was measured in triplicate. The zeta potential was measured using the following parameters: viscosity, 0.88 cP; dielectric constant, 78.5, and temperature, 25° C.
(§3) The self-assembling properties of Mito-Esc were explored. The particle size of an aqueous solution (1% EtOH) of Mito-Esc was measured using Dynamic light scattering (DLS). Mito-Esc formed nanosized particles of size 166±30 nm and surface charge of 33±0.4 mV (FIG. 2A). The size and morphology of self-assembled nanoparticles of Mito-Esc was investigated by scanning and by transmission electron microscopy respectively. Mito-Esc formed spherical shaped nanoparticles of <200 nm (FIGS. 2B & 2C).

A549 (lung) cancer cells = assay: Sulforhodamine B cytotoxicity, A549; format: cell-based; settings: A549, 24 h
Method: as §2

[7] = Scanning and transmission electron microscopy of nanoparticles; format: physicochemical; settings: spherical shaped nanoparticles
Method: Transmission electron microscopy studies were performed on a Tecnai T12 microscope (FEI) at 120 kV, and images were taken using an SIS CCD camera; Samples were negatively stained with ammonium molybdate on 200 or 400 mesh carbon-coated copper grids (Ted Pella, Inc.). Before recording micrographs, the grids were air dried.
Field emission scanning electron microscopic (FESEM) analysis of a Mito-Esc nanoparticle was performed on a Carl Zeiss SIGMA HD field-emission scanning electron microscope.
as §3

[8] = tested on: MCF-7 (ER+ve breast) cancer cells; assay: Sulforhodamine B cytotoxicity, MCF-7; format: cell-based; settings: MCF-7, 24 h
Method: as §2

[9] = tested on: MCF-10A (normal mammary epithelial cells); assay: Sulforhodamine B cytotoxicity, MCF-10A; format: cell-based; settings: 24 h
Method: as §2

MCF-10A cells = assay: Intracellular delivery of Cy-5 siRNA by confocal imaging, MCF-10A; format: cell-based
Method: FIG. 6: Comparison of intracellular delivery of Cy-5 siRNA using confocal imaging. MCF-10A cells were transfected with Cy-5 labelled siRNA using different delivery mechanisms. Transfection efficacy was evaluated using Confocal Microscopy. Cy-5 fluorescence in the cytosol is shown in blue.
as §1, with “Briefly,” for “FIG. 5: Detection of intracellular delivery of Cy-5 siRNA by Mito-Esc using confocal imaging. MDA-MB-231 cells were transfected with Cy-5 labelled siRNA (40 nM) with indicated delivery systems for 24 h. Transfection efficacy was evaluated using Confocal Microscopy. Cy-5 fluorescence in the cytosol is shown in blue color (Scale bar 10X). Briefly,”

MnSOD = MnSOD gene silencing by immunoblotting; format: cell-based; settings: MDA-MB-231, siMnSOD 40 nM, 48 h
Method: FIG. 4: Mito-Esc/siMnSOD complex by depleting MnSOD levels exacerbates Mito-Esc-induced breast cancer cell death. (A) MDA-MB-231 cells were incubated either with Mito-Esc/siMnSOD (40 nM) complex or with lipofectamine-2000/siMnSOD complex for 48 h and cell viability was measured by trypan blue dye exclusion assay. (B) MDA-MB-231 cells were transfected with siMnSOD (40 nM) with indicated delivery systems for 48 h and MnSOD protein levels were measured by immunoblotting. Parenthesis indicates the relative expression of MnSOD normalized to GAPDH (loading control).
At the end of the treatments, cell pellets were lysed in a RIPA buffer containing protease inhibitor cocktail, phosphatase inhibitor cocktail-2, 3. Proteins were resolved by SDS-PAGE and blotted onto a nitrocellulose membrane and blocked with 5% bovine serum albumin, washed, and incubated with primary antibodies (1:1000) over night at 4° C. The membranes were then washed and incubated for 1 h with anti-rabbit/mouse IgG horseradish peroxidase linked secondary antibodies (1:5000). ECL reagent (Amersham GE) was applied on the membrane prior to developing with a chemiluminescent system (Bio-Rad).
Cells were cultured in 12-well plates at a density of 3×10^4 cells per well (containing a glass coverslip the day before use). […]

P+/P− charge ratios at which siRNA is bound (migration retarded) (siRNA): did not bind the siRNA
Molecule: (8-(6,7-dimethoxy-2-oxo-2H-chromen-4-yl)octyl)triphenylphosphonium [Mito-isoscopoletin]
intracellular delivery of Cy-5 siRNA (MDA-MB-231 cells): failed to deliver the Cy-5 siRNA intracellularly

Molecule: O=c1cc(CCCCCCCC[P+](c2ccccc2)(c2ccccc2)c2ccccc2)c2cc(O)c(O)cc2o1 [Mito-Esc, (8-(6,7-dihydroxy-2-oxo-2H-chromen-4-yl)octyl) triphenylphosphonium]
concentrations causing dose-dependent cell death [1]: 1.5 to 7.5 µM
IC50 [2]: 4.9 µM
intracellular delivery of Cy-5 siRNA (MDA-MB-231 cells): significantly caused the intracellular delivery of Cy-5 siRNA
breast cancer progression (tumor volume, weight) [3]: regress breast cancer progression
IC50 [4]: 10 µM
IC50 [5]: 15.5 µM
particle size (DLS) [6]: 166±30 nm
surface charge [6]: 33±0.4 mV
IC50 (A549 (lung) cancer cells): 1.8 µM
nanoparticle size by SEM/TEM [7]: < 200 nm
IC50 [8]: 4.8 µM
IC50 [9]: > 100 µM
efficiency of siRNA delivery (MCF-10A cells): lower than Lipofectamine-2000

Molecule: O=c1ccc2cc(O)c(O)cc2o1 [parent esculetin, esculetin]
MnSOD protein levels (MnSOD): neither parent esculetin nor octyl TPP cation complexes were able to decrease MnSOD expression
intracellular delivery of Cy-5 siRNA (MDA-MB-231 cells): failed to deliver the Cy-5 siRNA intracellularly
